In patent US6686478B2, “Thienylsulphonylamino(thio)carbonyl compounds” (Bayer Aktiengesellschaft, priority 1996, dated 2004):

Experiments:
[1] = tested on: Setaria; test: Pre-emergence test/greenhouse; format: in vivo; conditions: greenhouse, 125 g of ai./ha, after three weeks, 0%=no effect, 100%=total destruction
Procedure: (§1) Solvent: 5 parts by weight of acetone
(§2) Emulsifier: 1 part by weight of alkylaryl polyglycol ether
(§3) To produce a suitable preparation of active compound, 1 part by weight of active compound is mixed with the stated amount of solvent, the stated amount of emulsifier is added and the concentrate is diluted with water to the desired concentration.
(§4) Seeds of the test plants are sown in normal soil. After about 24 hours, the soil is watered with the preparation of the active compound. Advantageously, the amount of water per unit area is kept constant. The active compound concentration in the preparation is not important, only the active compound application rate per unit area is critical.
(§5) After three weeks, the degree of damage to the plants is rated in % damage in comparison with the development of the untreated control. The figures denote:
(§6) 0%=no effect (like untreated control)

[2] = tested on: Bromus; test: Pre-emergence test/greenhouse; format: in vivo; conditions: greenhouse, 125 g of ai./ha, after three weeks, 0%=no effect, 100%=total destruction
Procedure: as §1, §2, §3, §4, §5, §6

[3] = tested on: Cyperus; test: Pre-emergence test/greenhouse; format: in vivo; conditions: greenhouse, 125 g of ai./ha, after three weeks, 0%=no effect, 100%=total destruction
Procedure: as §1, §2, §3, §4, §5, §6

[4] = tested on: Wheat; test: Pre-emergence test/greenhouse; format: in vivo; conditions: greenhouse, 125 g of ai./ha, after three weeks, 0%=no effect, 100%=total destruction
Procedure: as §1, §2, §3, §4, §5, §6

[5] = tested on: Solanum; test: Pre-emergence test/greenhouse; format: in vivo; conditions: greenhouse, 125 g of ai./ha, after three weeks, 0%=no effect, 100%=total destruction
Procedure: as §1, §2, §3, §4, §5, §6

[6] = tested on: Matricaria; test: Pre-emergence test/greenhouse; format: in vivo; conditions: greenhouse, 125 g of ai./ha, after three weeks, 0%=no effect, 100%=total destruction
Procedure: as §1, §2, §3, §4, §5, §6

[7] = tested on: Chenopodium; test: Pre-emergence test/greenhouse; format: in vivo; conditions: greenhouse, 125 g of ai./ha, after three weeks, 0%=no effect, 100%=total destruction
Procedure: as §1, §2, §3, §4, §5, §6

[8] = tested on: Lolium; test: Pre-emergence test/greenhouse; format: in vivo; conditions: greenhouse, 125 g of ai./ha, after three weeks, 0%=no effect, 100%=total destruction
Procedure: as §1, §2, §3, §4, §5, §6

[9] = tested on: weeds; test: Pre-emergence test, summary for weeds; format: in vivo; conditions: result in words
Procedure: as §1, §2, §3, §4, §5, §6

[10] = tested on: Maize; test: Pre-emergence test/greenhouse; format: in vivo; conditions: greenhouse, 125 g of ai./ha, after three weeks, 0%=no effect, 100%=total destruction
Procedure: as §1, §2, §3, §4, §5, §6

[11] = tested on: Sinapis; test: Pre-emergence test/greenhouse; format: in vivo; conditions: greenhouse, 250 g of ai./ha, after three weeks, 0%=no effect, 100%=total destruction
Procedure: as §1, §2, §3, §4, §5, §6

[12] = tested on: Abutilon; test: Pre-emergence test/greenhouse; format: in vivo; conditions: greenhouse, 250 g of ai./ha, after three weeks, 0%=no effect, 100%=total destruction
Procedure: as §1, §2, §3, §4, §5, §6

[13] = tested on: Amaranthus; test: Pre-emergence test/greenhouse; format: in vivo; conditions: greenhouse, 250 g of ai./ha, after three weeks, 0%=no effect, 100%=total destruction
Procedure: as §1, §2, §3, §4, §5, §6

[14] = tested on: Xanthium; test: Pre-emergence test/greenhouse; format: in vivo; conditions: greenhouse, 250 g of ai./ha, after three weeks, 0%=no effect, 100%=total destruction
Procedure: as §1, §2, §3, §4, §5, §6

[15] = tested on: Alopecurus; test: Pre-emergence test/greenhouse; format: in vivo; conditions: greenhouse, 250 g of ai./ha, after three weeks, 0%=no effect, 100%=total destruction
Procedure: as §1, §2, §3, §4, §5, §6

[16] = tested on: Setaria; test: Post-emergence test/greenhouse; format: in vivo; conditions: greenhouse, 250 g of ai/ha, after three weeks, 0%=no effect, 100%=total destruction
Procedure: as §1, §2, §3
(§7) Test plants which have a height of 5-15 cm are sprayed with the preparation of the active compound in such a way as to apply the particular amounts of active compound desired per unit area. The concentration of the spray liquor is chosen so that the amounts of active compound desired in each case are applied in 1000 l of water/ha.
(§8) After three weeks, the degree of damage to the plants is rated in % damage in comparison with the development of the untreated control.
as §6

[17] = tested on: Sinapis; test: Post-emergence test/greenhouse; format: in vivo; conditions: greenhouse, 250 g of ai/ha, after three weeks, 0%=no effect, 100%=total destruction
Procedure: as §1, §2, §3, §7, §8, §6

[18] = tested on: Amaranthus; test: Post-emergence test/greenhouse; format: in vivo; conditions: greenhouse, 250 g of ai/ha, after three weeks, 0%=no effect, 100%=total destruction
Procedure: as §1, §2, §3, §7, §8, §6

[19] = tested on: Maize; test: Post-emergence test/greenhouse; format: in vivo; conditions: greenhouse, 250 g of ai/ha, after three weeks, 0%=no effect, 100%=total destruction
Procedure: as §1, §2, §3, §7, §8, §6

[20] = tested on: weeds; test: Post-emergence test, summary for weeds; format: in vivo; conditions: result in words
Procedure: as §1, §2, §3, §7, §8, §6

[21] = tested on: Abutilon; test: Post-emergence test/greenhouse; format: in vivo; conditions: greenhouse, 250 g of ai/ha, after three weeks, 0%=no effect, 100%=total destruction
Procedure: as §1, §2, §3, §7, §8, §6

Structure (SMILES) | degree of damage to the plants, Setaria [1] [%] | degree of damage to the plants, Bromus [2] [%] | degree of damage to the plants, Cyperus [3] [%] | degree of damage to the plants, Solanum [5] [%] | degree of damage to the plants, Matricaria [6] [%] | degree of damage to the plants, Chenopodium [7] [%] | degree of damage to the plants, Lolium [8] [%] | activity against weeds [9] | degree of damage to the plants, Setaria [16] [%] | degree of damage to the plants, Sinapis [17] [%] | degree of damage to the plants, Amaranthus [18] [%] | activity against weeds [20] | further results
CCOc1nn(C(=O)NS(=O)(=O)c2c(C)csc2C)c(=O)n1C [Example 1, 5-ethoxy-4-methyl-2-(2,4-dimethyl-thien-3-yl-sulphonylaminocarbonyl)-2,4-dihydro-3H-1,2,4-triazol-3-one] | 100 | 100 | 95 | 100 | 100 | 100 | 100 | very strong activity | – | – | – | – | melting point: 158 °C; degree of damage to the plants, Wheat [4]: 0%
Cc1nc(C(=O)NS(=O)(=O)c2c(C)csc2C)no1 [Example 2, N-(2,4-dimethyl-thien-3-yl-sulphonyl)-5-methyl-1,2,4-oxadiazol-3-carboxamide] | – | – | – | – | – | – | – | – | – | – | – | – | melting point: 164 °C
CCc1nn(C(=O)NS(=O)(=O)c2c(C)csc2C)c(=O)n1C [Example 3] | 100 | 100 | 100 | 100 | 100 | 100 | 100 | very strong activity | – | – | – | – | degree of damage to the plants, Maize [10]: 5%
CSc1nn(C(=O)NS(=O)(=O)c2c(C)csc2C)c(=O)n1C [Example 4] | 100 | 95 | 95 | 80 | 90 | 90 | 100 | very strong activity | – | – | – | – | degree of damage to the plants, Wheat [4]: 0%; degree of damage to the plants, Maize [10]: 0%
CCCOc1nn(C(=O)NS(=O)(=O)c2c(C)csc2C)c(=O)n1C [Example 5] | – | – | – | – | – | – | – | very strong activity | – | – | – | – | degree of damage to the plants, Sinapis [11]: 95%; degree of damage to the plants, Abutilon [12]: 90%; degree of damage to the plants, Amaranthus [13]: 90%; degree of damage to the plants, Xanthium [14]: 90%; degree of damage to the plants, Alopecurus [15]: 70%
Cc1csc(C)c1S(=O)(=O)NC(=O)n1nc(OC(C)C)n(C)c1=O [Example 6] | – | – | – | – | – | – | – | – | 80 | 100 | 90 | very strong activity | degree of damage to the plants, Maize [19]: 10%
COc1nn(C(=O)NS(=O)(=O)c2c(C)csc2C)c(=O)n1C [Example 11] | 100 | 100 | 100 | 95 | 100 | 95 | 100 | very strong activity | – | – | – | – | –
CCOc1nn(C(=O)NS(=O)(=O)c2c(C)csc2C)c(=O)n1C1CC1 [Example 12] | – | – | – | – | – | – | – | very strong activity | – | – | – | – | degree of damage to the plants, Sinapis [11]: 95%; degree of damage to the plants, Abutilon [12]: 90%; degree of damage to the plants, Amaranthus [13]: 90%; degree of damage to the plants, Alopecurus [15]: 70%
CCOc1nn(C(=O)NS(=O)(=O)c2c(C)csc2C)c(=O)n1CC [Example 13] | – | – | – | – | – | – | – | – | 80 | 100 | 100 | very strong activity | degree of damage to the plants, Abutilon [21]: 80%
C#CCSc1nn(C(=O)NS(=O)(=O)c2c(C)csc2C)c(=O)n1C [Example 14] | – | – | – | – | – | – | – | – | 90 | 95 | 95 | very strong activity | degree of damage to the plants, Maize [19]: 10%
